Measurements reported in patent US20100256229A1, “COMPOSITIONS OF CHOL[…]” (priority 2009, published 2010).
Where a name gives a salt, the structure may show the parent alone.

How the values were obtained:
[1] = molecular target: T1, BuChE (human, purified from) (Homo sapiens, UniProt P06276); assay: In vitro inhibition of BuChE, modified Ellman procedure; format: biochemical; details: purified human butyrylcholinesterase (plasma); mean of two or three independent experiments; read-out: hBuChE IC50
T1 construct: BuChE (human, purified from erythrocytes); from tissue

[2] = test system: total plasma cholinesterase; assay: In vivo inhibition of plasma cholinesterase after oral dosing; design: species or system rats
Method: (§1) Following administration, rats were sacrificed and blood and brain samples were collected, processed and ChE activity was determined spectrophotometrically as described above.

[3] = Maximum Tolerated Dose determination
Method: The in vivo effectiveness of the stigmine compounds in vivo inhibitors was evaluated. Initially, the Maximum Tolerated Dose (MTD) was determined for each compound. The MTD was defined as the dose at which clear, yet reversible and non-life threatening cholinergic effects were observed.
as §1

[4] = test system: total brain cholinesterase; assay: In vivo inhibition of brain cholinesterase after oral dosing; design: species or system rats
Method: as §1

[5] = molecular target: T2, rhAChE (Homo sapiens, UniProt P22303); assay: Decarbamylation / reconstitution of inhibited enzyme; format: biochemical; details: for Decarbamylation rate k: phosphate buffer, 37° C., first-order model
Method: Next, the release of amphetamine from inhibited cholinesterase was investigated indirectly by monitoring reconstitution of enzyme activity as described above. […] The enzyme was separated from small organic molecules (carbamate and possible degradation products) by size exclusion chromatography over a Sephadex column. Purified, inhibited enzyme was incubated in phosphate buffer at 37° C., aliquots were drawn at various time points and the enzymatic activity was determined as described above. The data were plotted as the natural logarithm of the percent inhibition versus time according to a first-order kinetics model. The decarbamylation rate constant k was determined as the slope of this line. The halflife t1/2 is directly related to k (k=−ln(0.500)/t1/2).

[6] = test system: male Wistar rats; assay: Wake promotion, EEG/EMG sleep-wake monitoring (SCORE2004); details: for duration of wakefulness (total minutes of sleep loss): dosed at CT-5, various dose ranges
Method: Test compounds in various dose ranges or vehicle were administered to male Wistar rats 5 hours after lights on (CT-5). EEG, EMG, locomotor activity, drink- and food-related activity, and body temperature were concurrently monitored for 30 hr before and after treatment from rats living in separate isolated recording chambers.

[7] = Solid state and solution stability; details: for solid state stability to heat: 40° C. for 7 days; for solid state stability to UV: 220 W-h/m^2; for solid state stability to visible light: visible light exposure, 7.3×10^6 lux hours
[8] = Mechanical stress (micronizing); format: physicochemical; details: micronizing 20 minutes at 30 Hz, after standing 20 minutes; ball mill stress
From the text: FIG. 13 is two microscopic views of the hydrogen fumarate salt of compound 3d under mechanical stress.

[9] = Hygroscopicity testing and sorption isotherm; format: physicochemical; details: for hygroscopicity testing, appearance: sulfate after 3 days, fumarate after 7 days
[10] = molecular target: T2, rhAChE; details: for IC50: read-out: rhAChE IC50
[11] = Solubility (formulation studies)
[12] = test system: rats trained to discriminate methamphetamine from saline; assay: Drug discrimination (methamphetamine versus saline); format: in vivo; details: 0.1-3.2 mg/kg i.p. or 0.32-10 mg/kg p.o.
From the text: Drug discrimination is an operant paradigm that enables assessment of drug abuse liability (Yasar & Bergman, 1994. Amphetamine-like effect of 1-deprenyl (selegiline) in drug discrimination studies. Clin. Pharmacol. Therap. 56 (S78), 768-773). In this paradigm, psychostimulant properties of compounds may be determined in rats trained to discriminate methamphetamine from saline. Hungry rats are initially placed in a test apparatus where they learn that pressing either of two levers results in delivery of a food pellet. […]. On other days, rats are pretreated with vehicle, and must then select the opposite lever in order to obtain food. In this way, rats must learn to use the interoceptive cues generated by the psychostimulant drug to guide its choice of levers. Once lever pressing to a predetermined criterion has been established, a test compound can be administered. […]. If the rat chooses the methamphetamine lever, the test drug is said to have shown stimulus generalization; that is, it is perceived to be methamphetamine-like by the rat. […].

[13] = test system: scopolamine model of passive avoidance; assay: Scopolamine model of passive avoidance; format: in vivo, rats; details: 8 and 12 mg/kg i.p. 30 minutes before training; scopolamine 0.2 mg/kg s.c.; p<0.01
Method: Prior to training, rats were injected with scopolamine hydrobromide (0.2 mg/kg, s.c, 40 minutes before training) and with either saline or compound 4a (8, 12, 16 or 24 mg/kg, i.p, 30 minutes prior to training). The animals received a retention test 24 hours following training. The retention test was identical to training except that no foot-shock or drug was delivered. Latency to enter the dark chamber was recorded.

[14] = molecular target: Recombinant human cholinesterase (Homo sapiens, UniProt P22303); assay: Amphetamine release from inhibited enzyme, LC/MS/MS; format: biochemical
[15] = 60 minutes after oral dosing at MTD or highest dose tested, n = 4
[16] = oral dosing at MTD, mean of three measurements between 30 and 180 min following dosing

T1 sequence (P06276 29-602): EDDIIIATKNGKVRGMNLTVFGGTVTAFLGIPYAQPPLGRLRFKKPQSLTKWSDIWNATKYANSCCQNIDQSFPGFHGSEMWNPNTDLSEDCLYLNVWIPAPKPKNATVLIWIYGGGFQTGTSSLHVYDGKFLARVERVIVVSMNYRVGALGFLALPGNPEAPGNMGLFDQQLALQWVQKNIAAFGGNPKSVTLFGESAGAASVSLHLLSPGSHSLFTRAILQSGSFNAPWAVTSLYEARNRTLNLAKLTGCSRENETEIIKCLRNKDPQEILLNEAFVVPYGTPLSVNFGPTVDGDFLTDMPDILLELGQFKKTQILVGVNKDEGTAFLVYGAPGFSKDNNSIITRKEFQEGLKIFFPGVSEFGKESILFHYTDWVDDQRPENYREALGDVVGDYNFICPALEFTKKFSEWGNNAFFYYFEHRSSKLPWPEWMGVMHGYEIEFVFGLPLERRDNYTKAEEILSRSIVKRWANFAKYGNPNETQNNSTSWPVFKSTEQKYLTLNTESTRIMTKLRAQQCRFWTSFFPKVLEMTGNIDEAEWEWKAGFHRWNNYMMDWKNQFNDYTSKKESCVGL
T2 sequence (P22303 32-614): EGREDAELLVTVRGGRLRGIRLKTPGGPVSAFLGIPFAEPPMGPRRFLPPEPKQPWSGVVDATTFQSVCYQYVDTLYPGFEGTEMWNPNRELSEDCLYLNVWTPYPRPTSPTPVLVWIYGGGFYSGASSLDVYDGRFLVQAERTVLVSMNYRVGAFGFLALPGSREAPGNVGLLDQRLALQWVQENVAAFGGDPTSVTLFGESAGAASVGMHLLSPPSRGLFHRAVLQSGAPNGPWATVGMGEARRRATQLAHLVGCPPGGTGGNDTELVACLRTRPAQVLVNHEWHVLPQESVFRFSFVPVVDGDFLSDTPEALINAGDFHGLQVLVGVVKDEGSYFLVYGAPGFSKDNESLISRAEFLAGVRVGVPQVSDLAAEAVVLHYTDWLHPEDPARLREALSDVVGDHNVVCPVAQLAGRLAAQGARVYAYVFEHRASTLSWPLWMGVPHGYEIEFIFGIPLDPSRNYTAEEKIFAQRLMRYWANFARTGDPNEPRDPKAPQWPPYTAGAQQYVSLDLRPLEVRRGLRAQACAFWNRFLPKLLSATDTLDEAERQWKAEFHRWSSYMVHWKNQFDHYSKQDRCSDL
Recombinant human cholinesterase, sequence (P22303 32-614): as above

C[C@@H](c1cccc(OC(=O)N(C)[C@@H](C)Cc2ccccc2)c1)N(C)C [Compound 4c]
IC50 [1]: 334 nM | Plasma ChEI [2, 15]: 50% | MTD ([3]; rat, in vivo, po): > 64 mg/kg | Brain ChEI [4, 15]: 50% | Decarbamylation rate k [5]: 0.003 h⁻¹

C[C@@H](Cc1ccccc1)NC(=O)Oc1cccc([C@H](C)N(C)C)c1 [C, s-riva-d-amphetamine]
duration of wakefulness (total minutes of sleep loss) [6]: dose-related increase in wakefulness

C[C@H](Cc1ccccc1)N(C)C(=O)Oc1cccc([C@H](C)N(C)C)c1.O=C(O)/C=C/C(=O)O [hydrogen fumarate salt of compound 3d, 3-((S)-1-(Dimethylamino)ethyl)phenyl methyl-((R)-1-phenylpropan-2 yl)carbamate Hydrogen Fumarate]
solid state stability to heat [7]: stable | solid state stability to UV [7]: stable | chemical stability in water ([7]; up to 7 days at 40° C.): stable | solid state stability to visible light [7]: stable | mechanical stress [8]: gumming | hygroscopicity testing, appearance ([9]; 40° C./75 RH): solid | hygroscopicity, analysis by microscopy ([9]; after 7 days at 75% relative humidity): remains crystalline with traces of amorphous material

NC(=O)C[S+]([O-])C(c1ccccc1)c1ccccc1 (centres unmarked) [modafinil, reference compound]
duration of wakefulness (total minutes of sleep loss) [6]: increased the duration of wakefulness

C[C@H](Cc1ccccc1)NC(=O)Oc1cccc([C@H](C)N(C)C)c1 [Compound 4b]
IC50 [1]: 416 nM | Plasma ChEI [2, 15]: 26% | MTD ([3]; rat, in vivo, po): 32 mg/kg | Brain ChEI [4, 15]: 25% | Decarbamylation rate k [5]: 0.057 h⁻¹ | IC50 [10]: 404 nM

C[C@H](Cc1ccccc1)N(C)C(=O)Oc1cccc([C@H](C)N(C)C)c1 [Compound 3d, 3-((S)-1-(dimethylamino)ethyl)phenyl methyl-((R)-1-phenylpropan-2 yl)carbamate]
solid state stability to heat [7]: stable | solid state stability to UV [7]: stable | solution stability ([7]; pH 4, 5, 6, after 7 days, HPLC recovery): stable | solid state stability to visible light [7]: no change | mechanical stress [8]: instability to extreme thermal conditions | hygroscopicity testing by DSC and XRPD ([9]; 40° C./75 RH, 7 days): stability over 7 days | maximum moisture uptake (sorption isotherm) ([9]; at 75 RH): about 1% | solubility ([11]; pH 3, aqueous buffer): > 50 mg/mL | solubility ([11]; sixteen vehicles for oral dosing (rodents), aqueous with cosolvent or surfactant or cyclodextrin): > 50 mg/mL

C[C@H](Cc1ccccc1)N(C)C(=O)Oc1cccc([C@H](C)N(C)C)c1 [Compound B, s-riva-l-methamphetamine]
stimulus generalization to methamphetamine (lever selection) [12]: did not select the methamphetamine lever | duration of wakefulness (total minutes of sleep loss) [6]: dose-related increase in wakefulness | rebound hypersomnolence ([6]; following administration): not observed | body temperature ([6]; rat, in vivo): reduction in body temperature | locomotor activity ([6]; rat, in vivo): did not cause locomotor hyperactivity | increase in wakefulness compared with reference compounds ([6]; versus d-amphetamine, rivastigmine, modafinil): surpassed that seen with the reference compounds tested

CC(c1cccc(OC(=O)N(C)C(C)Cc2ccccc2)c1)N(C)C (centres unmarked) [Compound 4d]
IC50 [1]: 24400 nM | Plasma ChEI [2, 15]: 45% | MTD ([3]; rat, in vivo, po): 10 mg/kg | Brain ChEI [4, 15]: 64% | Decarbamylation rate k [5]: 0.011 h⁻¹

CCN(C)C(=O)Oc1cccc([C@H](C)N(C)C)c1 [Rivastigmine, rivastigmine, reference compound]
Plasma ChEI [2, 16]: 39% | MTD ([3]; oral, dose with clear, reversible, non-life threatening cholinergic effects, or highest dose tested): 5 mg/kg | duration of wakefulness (total minutes of sleep loss) [6]: increased wakefulness | Brain ChEI [4, 16]: 56%

C[C@@H](Cc1ccccc1)NC(=O)Oc1cccc([C@H](C)N(C)C)c1 [Compound 4a]
IC50 [1]: 7320 nM | Plasma ChEI [2, 15]: 59% | MTD ([3]; rat, in vivo, po): > 100 mg/kg | scopolamine-induced amnesia, step-through latency at 24 h retention test [13]: alleviated | Brain ChEI [4, 15]: 72% | d-amphetamine in decarbamylation aliquots ([14]; aliquots drawn 4 h later): 53 ng/mL | amphetamine in decarbamylation aliquots ([14]; aliquots drawn at t=0): did not contain amphetamine | enzyme reconstitution ([5]; at 4 h): 80% | Decarbamylation rate k [5]: 0.558 h⁻¹ | more selective for AChE than rivastigmine [10]: 225 fold | IC50 [10]: 508 nM

C[C@@H](c1cccc(OC(=O)N(C)[C@@H](C)Cc2ccccc2)c1)N(C)C [D, s-riva-d-methamphetamine]
duration of wakefulness (total minutes of sleep loss) [6]: dose-related increase in wakefulness

C[C@H](Cc1ccccc1)NC(=O)Oc1cccc([C@H](C)N(C)C)c1 [Compound A, s-riva-l-amphetamine]
duration of wakefulness (total minutes of sleep loss) [6]: dose-related increase in wakefulness

C[C@H](Cc1ccccc1)N(C)C(=O)Oc1cccc([C@H](C)N(C)C)c1 [hydrogen sulfate salt of compound 3d, 3-(S)-1-(Dimethylamino)ethyl)phenyl methyl-((R)-1-phenylpropan-2 yl)carbamate Hydrogen Sulfate]
hygroscopicity testing, appearance ([9]; 40° C./75 RH): deliquesces

C[C@H](N)Cc1ccccc1 [d-amphetamine, reference compound]
duration of wakefulness (total minutes of sleep loss) [6]: increased the duration of wakefulness
